In ChEMBL document CHEMBL1130043, “Chemometric methodologies in a quantitative structure-activity relationship study: the antibacterial activity of 6-aminoquinolones” (1997):

Key:
Assay type in all cases: functional
Enterococcus faecalis = experiment: Antibacterial activity against Streptococcus faecalis LEP Br (Gram positive) strain.
[1] = test system: Staphylococcus epidermidis; experiment: Antibacterial activity against Staphylococcus epidermidis CPHL A2 (Gram positive) strain, activity is expressed as log2MIC.
Klebsiella pneumoniae = experiment: Antibacterial activity against Klebsiella pneumoniae ATCC 10031 (Gram negative) strain.
Enterobacter cloacae = experiment: Antibacterial activity against Enterobacter cloacae OMNFI 174 (Gram negative) strain.
Staphylococcus aureus [2] = experiment: Antibacterial activity against Staphylococcus aureus ATCC 6538 (Gram positive) strain.
Escherichia coli [3] = experiment: Antibacterial activity against Escherichia coli ISF 432(Gram negative) strain.
Staphylococcus aureus [4] = experiment: Antibacterial activity against Staphylococcus aureus MPR 5 (Gram positive) strain.
Providencia stuartii = experiment: Antibacterial activity against Providencia stuartii CNUR 5(Gram negative) strain.
[5] = test system: Staphylococcus epidermidis; experiment: Antibacterial activity against Staphylococcus epidermidis HCF Berset C (Gram positive) strain.
[6] = test system: Acinetobacter calcoaceticus; experiment: Antibacterial activity against Acinetobacter calcoaceticus OSMPV 113 (Gram negative) strain.
Pseudomonas aeruginosa = experiment: Antibacterial activity against Pseudomonas aeruginosa ATCC 9027(Gram negative) strain.
Shigella = experiment: Antibacterial activity against Shigella enteritidis (Gram negative) strain.
Escherichia coli [7] = experiment: Antibacterial activity against Escherichia coli ATCC 8739(Gram negative) strain.

Row | Compound | Log2 MIC (Enterococcus faecalis) | Log2 MIC [1] | Log2 MIC (Klebsiella pneumoniae) | Log2 MIC (Enterobacter cloacae) | Log2 MIC (Staphylococcus aureus [2]) | Log2 MIC (Escherichia coli [3]) | Log2 MIC (Staphylococcus aureus [4]) | Log2 MIC (Providencia stuartii) | Log2 MIC [5] | Log2 MIC [6] | Log2 MIC (Pseudomonas aeruginosa) | Log2 MIC (Shigella) | Log2 MIC (Escherichia coli [7])
1 | Nc1cc2c(=O)c(C(=O)O)cn(C3CC3)c2cc1NC1CC1 | 0 | 0 | 6 | 1 | 0 | 5 | 0 | 0 | 0 | 0 | 0 | 1 | 6
2 | CC(C)(C)n1cc(C(=O)O)c(=O)c2cc(N)c(N3CCSCC3)cc21 | 4 | 8 | 12 | 6 | 9 | 12 | 9 | 5 | 8 | 8 | 5 | 6 | 11
3 | Nc1cc2c(=O)c(C(=O)O)cn(C3CC3)c2cc1N1CCSC1 | 0 | 1 | 8 | 3 | 1 | 7 | 0 | 0 | 1 | 0 | 0 | 2 | 8
4 | CC(C)(C)n1cc(C(=O)O)c(=O)c2cc(N)c(N3CCc4ccccc4C3)cc21 | 4 | 8 | 10 | 4 | 9 | 10 | 8 | 5 | 7 | 6 | 2 | 4 | 10
5 | CC1CN(c2cc3c(cc2N)c(=O)c(C(=O)O)cn3C2CC2)CCN1 (stereo unspecified) | 2 | 5 | 12 | 9 | 3 | 12 | 3 | 3 | 5 | 3 | 6 | 9 | 12
6 | CN1CCN(c2c(N)cc3c(=O)c(C(=O)O)cn(C4CC4)c3c2F)CC1 | 1 | 5 | 11 | 9 | 5 | 11 | 5 | 5 | 4 | 4 | 6 | 8 | 7
7 | Cc1c(N2CCNCC2)c(N)cc2c(=O)c(C(=O)O)cn(C3CC3)c12 | 3 | 5 | 12 | 11 | 6 | 12 | 5 | 6 | 4 | 6 | 7 | 12 | 12
8 | CN1CCN(c2cc3c(c(N)c2N)c(=O)c(C(=O)O)cn3C2CC2)CC1 | 0 | 0 | 2 | 0 | 0 | 3 | 0 | 0 | 0 | 0 | 0 | 0 | 3
9 | CC(C)(C)n1cc(C(=O)O)c(=O)c2cc(N)c(N3CCCC3)cc21 | 0 | 4 | 10 | 3 | 5 | 10 | 4 | 1 | 4 | 3 | 1 | 2 | 10
10 | N#CCN1CCN(c2cc3c(cc2N)c(=O)c(C(=O)O)cn3C2CC2)CC1 | 1 | 1 | 6 | 6 | 1 | 6 | 1 | 1 | 1 | 1 | 2 | 6 | 5
11 | CN1CCN(c2cc3c(cc2N)c(=O)c(C(=O)O)cn3C2CC2)CC1 | 2 | 6 | 12 | 9 | 6 | 12 | 6 | 4 | 5 | 2 | 5 | 9 | 9
12 | CN1CCN(c2cc3c(cc2N)c(=O)c(C(=O)O)cn3C(C)(C)C)CC1 | 2 | 6 | 11 | 7 | 6 | 11 | 6 | 5 | 5 | 5 | 5 | 7 | 11
13 | CN1CCN(c2c(N)c(N)c3c(=O)c(C(=O)O)cn(C4CC4)c3c2F)CC1 | 5 | 5 | 12 | 10 | 6 | 12 | 6 | 6 | 5 | 6 | 5 | 9 | 12
14 | Nc1cc2c(=O)c(C(=O)O)cn(C3CC3)c2cc1N1CCC(O)CC1 | 4 | 6 | 12 | 6 | 5 | 12 | 5 | 4 | 5 | 0 | 4 | 6 | 12
15 | CC(C)(C)n1cc(C(=O)O)c(=O)c2cc(N)c(N3CCc4ccccc43)cc21 | 1 | 5 | 10 | 4 | 6 | 10 | 6 | 5 | 5 | 4 | 2 | 4 | 10
16 | Cc1c(N2CC(C)NC(C)C2)c(N)cc2c(=O)c(C(=O)O)cn(C3CC3)c12 (stereo unspecified) | 3 | 7 | 12 | 8 | 7 | 12 | 7 | 6 | 6 | 6 | 6 | 9 | 11
17 | Nc1cc2c(=O)c(C(=O)O)cn(C3CC3)c2cc1N1CCCC1 | 0 | 0 | 9 | 4 | 0 | 9 | 0 | 0 | 0 | 0 | 0 | 3 | 9
